IC50 data for 27 compounds are collected here from patent publication US20160083391A1, “TRICYCLIC PIPERAZINE DERIVATIVE” (Sunovion Pharmaceuticals Inc., priority 2014, published 2016).

For orientation: IC50 means the point on the concentration scale where inhibition reaches its midpoint. A high value points to weaker potency in that assay.

The test has as its system PDE1. The test can be described thus: In vitro HTRF PDE1 inhibition assay. The test is classed as biochemical. The settings on record: HTRF cGMP assay, 100 nM cyclic GMP, PDE (1A3, 1B or 1C) with calmodulin, 45 minutes at 37° C.; isoform of the tabulated values not stated. In outline: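 HTRF cGMP competition assay: PDE1A3, 1B or 1C with calmodulin acting on 100 nM cGMP in 1% DMSO, pH 7.4 buffer with Ca2+ and Mg2+, 45 min at 37 °C. Remaining cGMP detected with d2-cGMP and anti-cGMP cryptate (665/615 nm); IC50 reported as banded categories.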
On the technique in general: In TR-FRET formats the signal depends on donor and acceptor labels being close together.

Molecules are shown by their SMILES.

As for `CC(C)n1ncc2c(=O)n3c(nc21)CN(Cc1ccccc1)CC3` [Compound I-29, 8-Benzyl-1-isopropyl-6,7,8,9-tetrahydropyrazino[1,2-a]pyrazolo[3,4-d]pyrimidin-4(1H)-one], the IC50 is 1 to 10 µM. In the case of `O=c1c2cnn(-c3ccccc3)c2nc2n1CCN(Cc1ccccc1)C2` [Compound I-30, 8-Benzyl-1-phenyl-6,7,8,9-tetrahydropyrazino[1,2-a]pyrazolo[3,4-d]pyrimidin-4(1H)-one] it was > 10 µM; in that of `CC(C)c1nn(C)c2c(=O)n3c(nc12)CN(C)CC3` [Compound I-40, 3-Isopropyl-1,6-dimethyl-5,6,7,8-tetrahydropyrazino[1,2-a]pyrazolo[4,3-d]pyrimidin-10(1H)-one], > 10 µM. `CC(C)c1n[nH]c2c(=O)n3c(nc12)CN(Cc1ccccc1)CC3` [Compound I-43, 6-Benzyl-3-isopropyl-5,6,7,8-tetrahydropyrazino[1,2-a]pyrazolo[4,3-d]pyrimidin-10(1H)-one]: the 50% inhibitory concentration (IC50) is > 10 µM. Then `CC(C)c1nn(C)c2c(=O)n3c(nc12)CN(Cc1ccccc1)CC3` [Compound I-46, 6-Benzyl-3-isopropyl-1-methyl-5,6,7,8-tetrahydropyrazino[1,2-a]pyrazolo[4,3-d]pyrimidin-10(1H)-one], with > 10 µM. On to `CN1CCn2c(nc3[nH]nc(Nc4ccccc4)c3c2=O)C1` [Compound I-49, 8-Methyl-3-(phenylamino)-6,7,8,9-tetrahydropyrazino[1,2-a]pyrazolo[3,4-d]pyrimidin-4(1H)-one], for which the IC50 is > 10 µM.

With `O=c1c2c(Nc3ccccc3)n[nH]c2nc2n1CCN(Cc1ccccc1)C2` [Compound I-50], the IC50 is > 10 µM. Then `CC(C)Cn1ncc2c(=O)n3c(nc21)CN(Cc1ccccc1)CC3` [Compound I-51, 8-Benzyl-1-isobutyl-6,7,8,9-tetrahydropyrazino[1,2-a]pyrazolo[3,4-d]pyrimidin-4(1H)-one], with 1 to 10 µM; and `O=c1c2cnn(C3CCCC3)c2nc2n1CCN(Cc1ccccc1)C2` [Compound I-52, 8-Benzyl-1-cyclopentyl-6,7,8,9-tetrahydropyrazino[1,2-a]pyrazolo[3,4-d]pyrimidin-4(1H)-one], with 1 to 10 µM; and `O=c1c2cnn(C3CC3)c2nc2n1CCN(Cc1ccccc1)C2` [Compound I-53, 8-Benzyl-1-cyclopropyl-6,7,8,9-tetrahydropyrazino[1,2-a]pyrazolo[3,4-d]pyrimidin-4(1H)-one], with > 10 µM. As to `CCCn1ncc2c(=O)n3c(nc21)CN(Cc1ccccc1)CC3` [Compound I-54, 8-Benzyl-1-propyl-6,7,8,9-tetrahydropyrazino[1,2-a]pyrazolo[3,4-d]pyrimidin-4(1H)-one], the IC50 is 1 to 10 µM.

In the case of `CC(C)n1ncc2c(=O)n3c(nc21)CN(c1ccccc1)CC3` [Compound I-55, 1-Isopropyl-8-phenyl-6,7,8,9-tetrahydropyrazino[1,2-a]pyrazolo[3,4-d]pyrimidin-4(1H)-one], the IC50 is 1 to 10 µM.

`CC(C)CN1CCn2c(nc3c(cnn3C(C)C)c2=O)C1` [Compound I-57, 8-Isobutyl-1-isopropyl-6,7,8,9-tetrahydropyrazino[1,2-a]pyrazolo[3,4-d]pyrimidin-4(1H)-one]: the IC50 was > 10 µM. On to `O=c1c2c(Nc3ccccc3)n(Cc3ccccc3)nc2nc2n1CCNC2` [Compound I-59, 2-Benzyl-3-(phenylamino)-6,7,8,9-tetrahydropyrazino[1,2-a]pyrazolo[3,4-d]pyrimidin-4(2H)-one], for which the IC50 is > 10 µM.

As for `CC(C)n1ncc2c(=O)n3c(nc21)CN(Cc1ccccc1-c1ccccc1)CC3` [Compound I-64, 8-([1,1′-Biphenyl]-2-ylmethyl)-1-isopropyl-6,7,8,9-tetrahydropyrazino[1,2-a]pyrazolo[3,4-d]pyrimidin-4(1H)-one], the IC50 lay within 1 to 10 µM. Consider `CC(C)n1ncc2c(=O)n3c(nc21)CN(Cc1cccc(-c2ccccc2)c1)CC3` [Compound I-65, 8-([1,1′-Biphenyl]-3-ylmethyl)-1-isopropyl-6,7,8,9-tetrahydropyrazino[1,2-a]pyrazolo[3,4-d]pyrimidin-4(1H)-one], for which the IC50 was < 1 µM.

In turn, `CC(C)n1ncc2c(=O)n3c(nc21)CN(Cc1ccc(-c2ccccc2)cc1)CC3` [Compound I-66, 8-([1,1′-Biphenyl]-4-ylmethyl)-1-isopropyl-6,7,8,9-tetrahydropyrazino[1,2-a]pyrazolo[3,4-d]pyrimidin-4(1H)-one] yielded an IC50 of 1 to 10 µM. Then `CC(C)n1ncc2c(=O)n3c(nc21)CN(Cc1ccccc1Cl)CC3` [Compound I-67, 8-(2-Chlorobenzyl)-1-isopropyl-6,7,8,9-tetrahydropyrazino[1,2-a]pyrazolo[3,4-d]pyrimidin-4(1H)-one], with < 1 µM; and `CC(C)Cn1ncc2c(=O)n3c(nc21)CN(Cc1ccccc1Cl)CC3` [Compound I-68, 8-(2-Chlorobenzyl)-1-isobutyl-6,7,8,9-tetrahydropyrazino[1,2-a]pyrazolo[3,4-d]pyrimidin-4(1H)-one], with 1 to 10 µM. In the case of `O=c1c2cnn(C3CCCC3)c2nc2n1CCN(Cc1ccccc1Cl)C2` [Compound I-69, 8-(2-Chlorobenzyl)-1-cyclopentyl-6,7,8,9-tetrahydropyrazino[1,2-a]pyrazolo[3,4-d]pyrimidin-4(1H)-one] it was < 1 µM; in that of `CC(C)n1ncc2c(=O)n3c(nc21)CN(Cc1cccc(Cl)c1)CC3` [Compound I-70, 8-(3-Chlorobenzyl)-1-isopropyl-6,7,8,9-tetrahydropyrazino[1,2-a]pyrazolo[3,4-d]pyrimidin-4(1H)-one], < 1 µM; in that of `CC(C)Cn1ncc2c(=O)n3c(nc21)CN(Cc1cccc(Cl)c1)CC3` [Compound I-71, 8-(3-Chlorobenzyl)-1-isobutyl-6,7,8,9-tetrahydropyrazino[1,2-a]pyrazolo[3,4-d]pyrimidin-4(1B)-one], < 1 µM. In the case of `O=c1c2cnn(C3CCCC3)c2nc2n1CCN(Cc1cccc(Cl)c1)C2` [Compound I-72, 8-(3-Chlorobenzyl)-1-cyclopentyl-6,7,8,9-tetrahydropyrazino[1,2-a]pyrazolo[3,4-d]pyrimidin-4(1H)-one] it was < 1 µM; in that of `CC(C)n1ncc2c(=O)n3c(nc21)CN(Cc1ccc(Cl)cc1)CC3` [Compound I-73, 8-(4-Chlorobenzyl)-1-isopropyl-6,7,8,9-tetrahydropyrazino[1,2-a]pyrazolo[3,4-d]pyrimidin-4(1H)-one], < 1 µM.

`CC(C)Cn1ncc2c(=O)n3c(nc21)CN(Cc1ccc(Cl)cc1)CC3` [Compound I-74, 8-(4-Chlorobenzyl)-1-isobutyl-6,7,8,9-tetrahydropyrazino[1,2-a]pyrazolo[3,4-d]pyrimidin-4(1H)-one]: the half-maximal inhibitory concentration (IC50) is < 1 µM. Then `O=c1c2cnn(C3CCCC3)c2nc2n1CCN(Cc1ccc(Cl)cc1)C2` [Compound I-75, 8-(4-Chlorobenzyl)-1-cyclopentyl-6,7,8,9-tetrahydropyrazino[1,2-a]pyrazolo[3,4-d]pyrimidin-4(1H)-one], with < 1 µM; and `COc1ccccc1CN1CCn2c(nc3c(cnn3C(C)C)c2=O)C1` [Compound I-76, 1-Isopropyl-8-(2-methoxybenzyl)-6,7,8,9-tetrahydropyrazino[1,2-a]pyrazolo[3,4-d]pyrimidin-4(1H)-one], with 1 to 10 µM.
